Each structure is given as a SMILES string. Inconclusive results are not listed.

The record followed here is PubChem BioAssay AID1607 (NINDS Approved Drug Screening Program, 2009).

For this test, the system named is cells expressing AR112-GFP, GFP fluorescence. Kind of test: AR112GFP polyglutamine androgen receptor turnover promoters – cell-based, GFP fluorescence (AID 1607).
Turning to `CN(C)C(=O)C(CCN1CCC(O)(c2ccc(Cl)cc2)CC1)(c1ccccc1)c1ccccc1`, the EC50 is 3.75 µM.
As for `CCC(C)[C@H]1O[C@]2(C=C[C@@H]1C)C[C@@H]1C[C@@H](C/C=C(\C)[C@@H](OC3C[C@H](OC)C(O[C@H]4C[C@H](OC)[C@@H](O)[C@H](C)O4)[C@H](C)O3)[C@@H](C)/C=C/C=C3\CO[C@@H]4[C@H](O)C(C)=C[C@@H](C(=O)O1)[C@]34O)O2` (stereo not given in full), the EC50 was 3.75 µM.
Take `CN1CCC[C@@H]1CCO[C@](C)(c1ccccc1)c1ccc(Cl)cc1`: the 50% effective concentration (EC50) is 3.12 µM.
With `CN1CCN(CCC=C2c3ccccc3Sc3ccc(S(=O)(=O)N(C)C)cc32)CC1`, the EC50 is 3.12 µM.
Next, `O=c1cc(-c2ccccc2)oc2c(O)c(O)ccc12`: 2.5 µM; `CC(CN(C)C)CN1c2ccccc2CCc2ccccc21` (stereo not given): 3.75 µM; `COc1ccc2cc3[n+](cc2c1OC)CCc1cc2c(cc1-3)OCO2`: 3.12 µM.
`CC(CN(C)C)CN1c2ccccc2Sc2ccccc21` (stereo not given): the EC50 is 3.75 µM.
Next, `CNCCCN1c2ccccc2CCc2ccccc21`: 3.12 µM; `CCc1nc(N)nc(N)c1-c1ccc(Cl)cc1`: 3.75 µM.
As to `COC(=O)[C@H]1[C@H]2C[C@@H]3c4[nH]c5cc(OC)ccc5c4CCN3C[C@H]2C[C@@H](OC(=O)c2cc(OC)c(OC)c(OC)c2)[C@@H]1OC`, the EC50 is 3.75 µM.
Regarding `Fc1ccc(C(c2ccc(F)cc2)N2CCN(C/C=C/c3ccccc3)CC2)cc1`, the 50% effective concentration (EC50) was 3.75 µM.
For `CN(C)CCC=C1c2ccccc2C=Cc2ccccc21`, the EC50 was 3.12 µM.
Next, `NCCc1cc(O)c(O)cc1O`: 3.12 µM.
As to `Clc1ccc(C(OCCN2CCCCC2)c2ccccc2)cc1` (stereo not given), the EC50 is 3.75 µM.
